Structures are written as SMILES. Where two headings read alike, the source gives them in different places.

The target in assay [1] is T1, serotonin transporter (Rattus norvegicus, UniProt P31652).
T1 construct: using synaptosomes prepared from rat midbrain and parietal/occipital cortex, respectively; from tissue; host or cells: rat midbrain synaptosomes
In words: Synaptosomal uptake of [3H]5-HT. Type of assay: biochemical. On the procedure:
(§1) IC50 values were determined by a computer assisted, iterative fit to a four-parameter sigmoidal equation (ALLFIT). These values were then converted to Ki values according to the Cheng-Prusoff equation assuming classical competitive inhibition. Preincubation of the drug and synaptosomes at 37° C. for 30 min was used to approximate equilibrium conditions as necessary to satisfy the requirements of the Cheng-Prusoff equation.
(§2) The effect of candidate compounds in antagonizing dopamine high-affinity uptake was determined using a method previously employed. For [^3H]DA uptake, dissected rat striata were homogenized with a Teflon-glass pestle in ice-cold 0.32 M sucrose and centrifuged for 10 mm at 1000×g. The supernatant was centrifuged at 17,500×g for 20 mm. This P2 synaptosomal pellet was resuspended in 30 volumes of ice-cold modified KRH buffer. An aliquot of the synaptosomal suspension was preincubated with the buffer and drug for 30 mm at 37° C., and uptake initiated by the addition of [^3H]dopamine (5 nM, final conc.). After 5 mm, uptake was terminated by adding 5 ml of cold buffer containing glucosamine as a substitute for NaCl and then finally by rapid vacuum filtration over GF-C glass fiber filters, followed by washing with two 5 ml volumes of ice-cold, sodium-free buffer. Radioactivity retained on the filters was determined by liquid scintillation spectrometry. […] Also, specific uptake of [^3H]5-HT and [^3H]NE were defined in the presence of 10 uM fluoxetine and 1 uM desipramine, respectively.

Assay [2] addresses T2, norepinephrine transporter (Rattus norvegicus, UniProt Q63380).
T2 construct: using synaptosomes prepared from rat midbrain and parietal/occipital cortex, respectively; from tissue; host or cells: rat parietal/occipital cortex synaptosomes
Put plainly: Synaptosomal uptake of [3H]NE. Type of assay: biochemical. As for the experimental part:
as §1, §2

The target in assay [3] is T3, dopamine transporter (DAT) (Rattus norvegicus, UniProt P23977).
T3 construct: P2 membrane pellets were prepared by differential centrifugation from rat striatum; from tissue; host or cells: rat striatum (P2 membrane pellet / P2 synaptosomes)
Put plainly: [3H]mazindol binding assay. The settings on record: for Ki: rat striatum membranes, mean ± standard error or range of 2-3 experiments. On the procedure: Binding assays were conducted as previously described. Briefly conventional P2 membrane pellets were prepared by differential centrifugation from rat striatum. The P2 pellet was resuspended in Krebs-Ringer-HEPES (KRH) buffer consisting of (in mM): NaCl (125), KCl (4.8), MgSO4 (1.2), CaCl2 (1.3), KH2PO4 (1.2), glucose (5.6), nialamide (0.01), and HEPES (25) (pH 7.4) and centrifuged again. Finally, the pellet was resuspended in 30 volumes of buffer, pelleted at 15,000×g and frozen at −80° C. until used. The striatal homogenates were thawed by resuspension in the buffer described above at 75-125 µg protein/ml and incubated with [^3H]mazindol, with or without competing drugs, for 60 min in a 4° C. cold room. […] The bound and free [^3H]mazindol were separated by rapid vacuum filtration over Whatman GF/C filters, using a Brandel M24R cell harvester, followed by two washes with 5 ml of cold buffer. Radioactivity on the filters was then extracted by allowing to sit over night with 5 ml of scintillant. The vials were vortexed and counted. IC50 values were determined using the computer program LIGAND.
For binding assays, caudate nuclei were homogenized using a polytron in 0.32 M sucrose and centrifuged for 10 mm at 1000×g. The supernatant was resuspended in cold sucrose and centrifuged at 17,500×g for 20 mm. The pellet was resuspended in Krebs-Ringer-HEPES (KRH) buffer consisting of (in mM): NaCl (125), KCl (4.8), MgSO4 (1.2), CaCl2 (1.3), KH2PO4(1.2), glucose (5.6), nialamide (0.01), and HEPES (25) (pH 7.4) and centrifuged again. Finally, the pellet was resuspended in 30 volumes of buffer, pelleted at 15,000×g and frozen at −80° C. until used. The striatal homogenates were thawed by resuspension in the buffer described above at 75-125 μg protein/ml and incubated with [^3H]mazindol, with or without competing drugs, for 60 mm in a 4° C. cold room. […] The bound and free [^3H]mazindol were separated by rapid vacuum filtration over Whatman GF/C filters, using a Brandel M24R cell harvester, followed by two washes with 5 ml of cold buffer. Radioactivity on the filters was then extracted by allowing to sit over night with 5 ml of scintillant. The vials were vortexed and counted. IC50 values were determined using the computer program LIGAND.

Assay [4] deals with T3, dopamine transporter (DAT). Put plainly: Synaptosomal uptake of [3H]DA (inhibition of DA reuptake). It counts as biochemical. As for the experimental part:
as §2, with “uptake, freshly” for “uptake,”, “min” for “mm”, “min.” for “mm.”, “min,” for “mm,”, “It is identical to that calculated by subtracting the mean” for “Also, specific uptake”, “identical tubes incubated at 0° C.” for “[^3H]5-HT and [^3H]NE were defined in the presence of 10 uM fluoxetine and 1 uM desipramine, respectively.”
as §1, §2

Assay [5] has as its target DAT (Homo sapiens, UniProt Q01959). Particulars: cited from earlier work.
Setting [6] is: read-out: Ki (nM) [3H] Mazindol Binding.
The mark [7] stands for this setting: Ki (nM) DA Reuptake, rat striatal synaptosomes, mean ± standard error or range of 2-3 experiments.
[8] abbreviates: Ki (nM) SER, synaptosomes from rat midbrain, mean ± standard error or range of 2-3 experiments.
Setting [9] is: Ki (nM) NE, synaptosomes from rat parietal/occipital cortex, mean ± standard error or range of 2-3 experiments.
The mark [10] stands for this setting: binding affinity and DA reuptake not distinguished in the sentence.

T3 sequence (P23977 whole entry): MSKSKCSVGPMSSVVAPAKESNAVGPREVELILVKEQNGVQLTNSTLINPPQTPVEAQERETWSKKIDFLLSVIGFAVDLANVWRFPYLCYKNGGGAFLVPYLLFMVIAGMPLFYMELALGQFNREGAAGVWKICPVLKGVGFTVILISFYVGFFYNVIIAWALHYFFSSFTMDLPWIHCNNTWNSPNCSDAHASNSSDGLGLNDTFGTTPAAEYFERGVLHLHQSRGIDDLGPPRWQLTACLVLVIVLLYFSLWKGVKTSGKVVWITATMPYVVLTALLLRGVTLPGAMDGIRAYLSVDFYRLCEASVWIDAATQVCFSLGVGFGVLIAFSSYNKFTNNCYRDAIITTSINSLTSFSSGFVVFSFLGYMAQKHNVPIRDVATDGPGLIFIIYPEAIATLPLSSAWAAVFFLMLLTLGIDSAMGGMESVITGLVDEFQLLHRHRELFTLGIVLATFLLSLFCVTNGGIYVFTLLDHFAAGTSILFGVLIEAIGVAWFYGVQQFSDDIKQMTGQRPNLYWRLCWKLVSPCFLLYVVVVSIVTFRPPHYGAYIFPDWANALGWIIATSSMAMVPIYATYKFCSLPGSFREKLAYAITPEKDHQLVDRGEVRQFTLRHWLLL
T1 sequence (P31652 whole entry): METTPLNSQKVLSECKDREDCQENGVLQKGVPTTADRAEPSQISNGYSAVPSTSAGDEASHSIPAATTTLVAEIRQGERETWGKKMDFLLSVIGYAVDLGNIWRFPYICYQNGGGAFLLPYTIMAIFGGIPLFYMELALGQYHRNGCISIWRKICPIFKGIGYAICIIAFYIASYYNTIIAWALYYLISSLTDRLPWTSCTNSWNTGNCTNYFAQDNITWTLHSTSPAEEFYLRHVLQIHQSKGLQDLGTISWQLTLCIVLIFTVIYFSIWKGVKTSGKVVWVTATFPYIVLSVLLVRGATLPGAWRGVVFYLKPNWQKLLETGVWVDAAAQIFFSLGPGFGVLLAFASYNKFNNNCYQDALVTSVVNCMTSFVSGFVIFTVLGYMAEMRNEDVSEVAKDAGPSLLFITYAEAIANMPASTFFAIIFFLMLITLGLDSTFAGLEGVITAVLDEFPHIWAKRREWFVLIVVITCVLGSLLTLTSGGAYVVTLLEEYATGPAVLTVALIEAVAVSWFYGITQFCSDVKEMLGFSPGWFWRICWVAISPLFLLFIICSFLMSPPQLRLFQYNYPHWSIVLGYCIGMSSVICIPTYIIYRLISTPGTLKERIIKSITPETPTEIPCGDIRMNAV
T2 sequence (Q63380 1-617): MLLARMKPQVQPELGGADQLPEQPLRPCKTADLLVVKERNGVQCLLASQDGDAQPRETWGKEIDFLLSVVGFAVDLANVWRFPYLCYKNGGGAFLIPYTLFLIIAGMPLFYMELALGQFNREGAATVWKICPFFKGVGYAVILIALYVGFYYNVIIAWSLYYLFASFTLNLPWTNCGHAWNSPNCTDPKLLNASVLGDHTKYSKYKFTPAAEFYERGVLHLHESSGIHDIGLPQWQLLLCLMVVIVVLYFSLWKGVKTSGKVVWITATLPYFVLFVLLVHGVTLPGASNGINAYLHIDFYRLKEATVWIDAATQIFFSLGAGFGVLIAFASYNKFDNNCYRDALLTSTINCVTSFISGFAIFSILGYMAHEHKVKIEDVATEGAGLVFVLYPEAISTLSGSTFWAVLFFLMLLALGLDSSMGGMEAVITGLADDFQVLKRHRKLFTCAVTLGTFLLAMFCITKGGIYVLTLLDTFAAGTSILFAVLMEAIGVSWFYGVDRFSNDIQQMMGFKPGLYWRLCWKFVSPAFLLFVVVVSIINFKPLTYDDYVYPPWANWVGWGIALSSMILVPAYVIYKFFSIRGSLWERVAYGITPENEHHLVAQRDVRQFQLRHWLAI
Sequence of DAT (Q01959 whole entry, species assumed): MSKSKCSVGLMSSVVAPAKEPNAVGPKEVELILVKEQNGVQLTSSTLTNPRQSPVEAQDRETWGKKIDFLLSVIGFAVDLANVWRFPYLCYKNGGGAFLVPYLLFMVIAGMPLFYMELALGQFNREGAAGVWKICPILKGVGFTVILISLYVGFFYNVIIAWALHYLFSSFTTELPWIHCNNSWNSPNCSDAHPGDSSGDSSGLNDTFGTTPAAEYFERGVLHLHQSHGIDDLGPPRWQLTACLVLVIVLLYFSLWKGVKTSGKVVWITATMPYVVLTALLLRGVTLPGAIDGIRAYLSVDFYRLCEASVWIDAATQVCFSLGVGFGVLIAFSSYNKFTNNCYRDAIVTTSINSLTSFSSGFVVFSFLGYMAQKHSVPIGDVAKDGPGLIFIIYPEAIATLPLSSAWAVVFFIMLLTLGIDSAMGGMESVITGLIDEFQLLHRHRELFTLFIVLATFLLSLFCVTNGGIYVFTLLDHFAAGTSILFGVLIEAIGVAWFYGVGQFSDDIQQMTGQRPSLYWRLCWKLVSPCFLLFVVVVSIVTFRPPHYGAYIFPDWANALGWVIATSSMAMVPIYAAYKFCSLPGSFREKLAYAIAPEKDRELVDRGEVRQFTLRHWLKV

As a reminder, the Ki is a dissociation constant, usually derived from enzyme kinetics or from competition with a known ligand. Consider `CCCCC1C(c2ccccc2)C2CCN1CC2` (racemic) [(±)-12, 2-Butyl-3-phenylquinuclidine], for which the Ki in assay [1] is 655 ± 21 nM; in assay [2], 136 ± 11 nM; in assay [3] (setting [6]) it was 210 nM; in assay [4] (setting [7]) it was 237 nM. For the same molecule, in assay [3], the “times more potent than cocaine in binding affinity” value is listed as “as potent as cocaine”. In assay [3] (ratio of Ki values), the “fold improvement over the lead compound (3) in binding affinity” value (“fold improvement … in binding affinity” below) was 31 fold. Besides, in assay [4], the “times more potent than cocaine in inhibition of DA reuptake” value is listed as “as potent as cocaine”. In assay [4] (ratio of Ki values), the “fold improvement over the lead compound (3) in inhibition of DA reuptake” value (“fold improvement … in inhibition of DA reuptake” below) came to 32 fold.
On to `CCCCC1C(c2ccc(C)cc2)C2CCN1CC2` (single isomer, unassigned; (-)) [(−)-13, 2-Butyl-3-(4-methylphenyl)quinuclidine], for which the Ki in assay [1] (setting [8]) turned out to be 26 ± 3 nM; in assay [2] (setting [9]) it was 15 ± 3 nM; in assay [3] (Ki (nM) [3H] Mazindol Binding), 14 nM; in assay [4] (setting [7]) it was 32 nM. Further, the “times more potent than cocaine in binding affinity” value in assay [3] was determined as 17 times. In addition, the “fold improvement … in binding affinity” value in assay [3] (ratio of Ki values) was found to be 519 fold. For the same molecule, in assay [4], the “times more potent than cocaine in inhibition of DA reuptake” value worked out at 9 times. For the same molecule, in assay [4] (setting [10]), the “fold more potent than (±)-13” value is given as “approximately 2 fold”. The “fold more potent than its enantiomer (+)-13” value in assay [4] (setting [10]) is on record as 11 fold. The “fold improvement … in inhibition of DA reuptake” value in assay [4] (ratio of Ki values) is recorded as 278 fold.
On to `CCCCC1C(c2ccc(C)cc2)C2CCN1CC2` (racemic) [(±)-13, 2-Butyl-3-(4-methylphenyl)quinuclidine], for which the Ki was found to be 77 ± 7 nM in assay [1] (setting [8]), 62 ± 5 nM in assay [2] (setting [9]), 20 nM in assay [3] (Ki (nM) [3H] Mazindol Binding) and 49 nM in assay [4] (setting [7]). The “fold improvement over 13 (so in the source) in binding activity” value in assay [3] (ratio of Ki values) was 11 fold. Further, the “fold improvement … in binding affinity” value in assay [3] (ratio of Ki values) is on record as 365 fold. The “fold improvement over 13 (so in the source) in uptake activity” value in assay [4] (ratio of Ki values) is 5 fold. Further, the “fold improvement … in inhibition of DA reuptake” value in assay [4] (ratio of Ki values) was determined as 181 fold.
As to `CCCCC1C(c2ccc(C)cc2)C2CCN1CC2` (single isomer, unassigned; (+)) [(+)-13, 2-Butyl-3-(4-methylphenyl)quinuclidine], the Ki in assay [1] was determined as 508 ± 22 nM; in assay [2] it was 164 ± 47 nM; in assay [3] (setting [6]) it was 343 nM; in assay [4] (setting [7]), 354 nM.
For the molecule `C=CCCC1C(=O)C2CCN1CC2` (centres unmarked) [Compound 7, 2-But-3-enylquinuclidin-3-one], the Ki in assay [4] (setting [7]) was above 10000 nM. Further, in assay [4] (at 10 µM), the “measurable activity in inhibition of DA reuptake” value is listed as “did not show any measurable activity”.
`C=CCCC1N2CCC(CC2)C1(O)c1ccccc1` (centres unmarked) [Compound 8, 2-But-3-enyl-3-phenylquinuclidin-3-ol] came in with a Ki in assay [4] (Ki value (text, refers to Table 1 DA reuptake)) of 31200 nM. Besides, the “fold less potent than 12” value in assay [4] (ratio of Ki values, DA reuptake) was 131 fold.
Take `COC(=O)[C@H]1[C@@H](c2ccccc2)C[C@@H]2CC[C@H]1N2C` [2 (WIN 35065-2), WIN 35065-2]: the “binding affinity at the DAT site, times better than cocaine” value in assay [5] was 4 times.

Values taken from patent US20050131051A1, “2-3-disubstituted quinuclidiness as modulators of monoamine transporters and theraperutic and diagnostic methods based thereon” (priority 2000, published 2005).
